From ChEMBL document CHEMBL4627386, “Bromo-spiroisoxazoline Alkaloids, Including an Isoserine Peptide, from the Caribbean Marine Sponge Aplysina lacunosa” (J Nat Prod, 2020)
Calls of active or inactive are those of the source. The calls are words filed in the database; no cut-off is given here.

molecular target: Chymotrypsinogen A (Bos taurus) (UniProt P00766); assay: Inhibition of bovine alpha-Chymotrypsin up to 25 ug/ml using Ala-Ala-Phe-p-nitroanilide as substrate preincubated for 15 mins followed by substrate addition and measured after 1 hr by colorimetric method

SMILES	inhibition
COC1=C(Br)[C@H](O)[C@@]2(C=C1Br)CC(C(=O)NCCCOc1c(Br)cc(C/C(=N\O)C(=O)NCCc3c[nH]cn3)cc1Br)=NO2	inactive
COC1=C(Br)[C@H](O)[C@@]2(C=C1Br)CC(C(=O)NCCc1c[nH]cn1)=NO2	inactive
COC1=C(Br)[C@@H](O)[C@]2(C=C1Br)CC(C(=O)NCCCc1cnc(N)[nH]1)=NO2	inactive
COc1c(Br)cc(C/C(=N\O)C(=O)NCCc2c[nH]cn2)c(O)c1Br	inactive

Continued, values first:

inhibition	SMILES
inactive	COC(=O)CNC(=O)C1=NO[C@]2(C=C(Br)C(OC)=C(Br)[C@@H]2O)C1
inactive	COC(=O)C(O)CNC(=O)C1=NO[C@]2(C=C(Br)C(OC)=C(Br)[C@@H]2O)C1 (some centres not stated)
inactive	COC(=O)C1=NO[C@]2(C=C(Br)C(OC)=C(Br)[C@@H]2O)C1
